Reference: patent US20090197880A1 (Genelabs Technologies, Inc., priority 2007, published 2009)

Assay: HCV replicon assay (luciferase) in ET (Huh-lucubineo-ET) cell line
Assay type: cell-based
Settings: Hepatitis C virus; tested at 5 μM; inhibition of replication relative to no compound control; ET replicon cells, luciferase 48-72 hours
Source text: A cell line, ET (Huh-lucubineo-ET) was used for screening of compounds, or pharmaceutically acceptable salts or solvates, described herein for inhibition of HCV RNA dependent RNA polymerase. The ET cell line was stably transfected with RNA transcripts harboring a I389luc-ubi-neo/NS3-3′/ET; replicon with firefly luciferase-ubiquitin-neomycin phosphotransferase fusion protein and EMCV-IRES driven NS3-5B polyprotein containing the cell culture adaptive mutations (E1202G; T1280I; K1846T) (Krieger at al, 2001 and unpublished). The ET cells were grown in DMEM, supplemented with 10% fetal calf serum, 2 mM Glutamine, Penicillin (100 IU/mL)/Streptomycin (100 μg/mL), 1× nonessential amino acids, and 250 μg/mL G418 (“Geneticin”). They were all available through Life Technologies (Bethesda, Md.). The cells were plated at 0.5−1.0×10^4 cells/well in the 96 well plates and incubated for 24 hrs before adding the test compounds. […] Luciferase activity was measured 48-72 hours later by adding a lysis buffer and the substrate (Catalog number Glo-lysis buffer E2661 and Bright-Glo luciferase system E2620 Promega, Madison, Wis.). Cells should not be too confluent during the assay. Percent inhibition of replication was plotted relative to no compound control. Under the same condition, cytotoxicity of the compounds was determined using cell proliferation reagent, WST-1 (Roche, Germany). The compounds showing antiviral activities, but no significant cytotoxicities were chosen to determine the EC50 and TC50, the effective concentration and toxic concentration at which 50% of the maximum inhibition is observed. For these determinations, 6 dilutions of each compound were used. Compounds were typically diluted 3 fold to span a concentration range of 250 fold. EC50 and similarly TC50 values were calculated by fitting % inhibition at each concentration to the following equation:
% inhibition=100%/[(EC50/[I])^b+1]
where b is Hill's coefficient.

Q: For `CCOc1ccc(-c2cc(Cn3cc4nc(-c5ccccc5F)nc-4cn3)on2)cc1` [Compound 110, 5-[3-(4-Ethoxy-phenyl)-isoxazol-5-ylmethyl]-2-(2-fluoro-phenyl)-55H-imidazo[4,5-d]pyridazine], which inhibition at 5 µM is on record?
A: 99.4%

Q: For `Fc1ccccc1-c1nc2cnn(Cc3cc(-c4ccc(OC(F)(F)F)cc4)no3)cc-2n1` [Compound 108, 2-(2-Fluoro-phenyl)-5-[3-(4-trifluoromethoxy-phenyl)-isoxazol-5-ylmethyl]-5H-imidazo[4,5-d]pyridazine], which inhibition at 5 µM is on record?
A: 99.9%

Same assay, conditions: Hepatitis C virus; tested at 10 μM; inhibition of replication relative to no compound control; ET replicon cells, luciferase 48-72 hours; read-out: % inhition at 10 μM

Q: Which inhibition at 10 µM does the source give for `COCCCOc1ccc(-c2cc(Cn3cc4nc(-c5cccc(F)c5F)nc-4cn3)on2)cc1` [Compound 312, 2-(2,3-Difluoro-phenyl)-5-{3-[4-(3-methoxy-propoxy)-phenyl]-isoxazol-5-ylmethyl}-5H-imidazo[4,5-d]pyridazine] here?
A: 98.1%

Q: Which inhibition at 10 µM does the source give for `Fc1cc(C(F)(F)F)ccc1-c1cc(Cn2ccc3nc(-c4cccc(F)c4F)nc-3n2)on1` [Compound 247, 6-(2,3-Difluoro-phenyl)-2-[3-(2-fluoro-4-trifluoromethyl-phenyl)-isoxazol-5-ylmethyl]-2H-imidazo[4,5-c]pyridazine] here?
A: 80%

Q: For `CC(C)(C)c1ccc(-c2cc(Cn3cc4nc(-c5ccccc5F)nc-4cn3)on2)cc1` [Compound 283, 5-[3-(4-tert-Butyl-phenyl)-isoxazol-5-ylmethyl]-2-(2-fluoro-phenyl)-5H-imidazo[4,5-d]pyridazine], which inhibition at 10 µM is on record?
A: 66.7%

Q: For `COC(=O)c1cc(OC)ccc1-c1cc(Cn2cc3nc(-c4cccc(F)c4F)nc-3cn2)on1` [Compound 198, 2-{5-[2-(2,3-Difluoro-phenyl)-imidazo[4,5-d]pyridazin-5-ylmethyl]-isoxazol-3-yl}-5-methoxy-benzoic acid methyl ester], which inhibition at 10 µM is on record?
A: 50.3%

Q: Which inhibition at 10 µM does the source give for `CCOc1ccc(-c2cc(Cn3cc4nc(-c5ccccc5F)nc-4cn3)on2)cc1` [Compound 110, 5-[3-(4-Ethoxy-phenyl)-isoxazol-5-ylmethyl]-2-(2-fluoro-phenyl)-55H-imidazo[4,5-d]pyridazine] here?
A: 97.4%

Q: With `COC(=O)c1ccc(-c2cc(Cn3cc4nc(-c5cccc(F)c5F)nc-4cn3)on2)cc1` [Compound 209, 4-{5-[2-(2,3-difluoro-phenyl)-imidazo[4,5-d]pyridazin-5-ylmethyl]-isoxazol-3-yl}-benzoic acid methyl ester] as the compound, how does the inhibition at 10 µM read?
A: 93.6%

Q: For `Fc1cccc(-c2nc3cnn(Cc4cc(-c5ccc(OC(F)(F)F)cc5)no4)cc-3n2)c1F` [Compound 214, 2-(2,3-Difluoro-phenyl)-5-[3-(4-trifluoromethoxy-phenyl)-isoxazol-5-ylmethyl]-5H-imidazo[4,5-d]pyridazine], which inhibition at 10 µM is on record?
A: 98.5%

Q: Which inhibition at 10 µM does the source give for `Fc1ccc(-c2cc(Cn3cc4nc(-c5cccc(F)c5F)nc-4cn3)on2)c(OC(F)(F)F)c1` [Compound 160, 2-(2,3-Difluoro-phenyl)-5-[3-(4-fluoro-2-trifluoromethoxy-phenyl)-isoxazol-5-ylmethyl]-5H-imidazo[4,5-d]pyridazine] here?
A: 61.5%

Q: Which inhibition at 10 µM does the source give for `Fc1cccc(-c2nc3cnn(Cc4cc(-c5ccc(COc6cccnc6)cc5)no4)cc-3n2)c1F` [Compound 178, 2-(2,3-Difluoro-phenyl)-5-{3-[4-(pyridin-3-yloxymethyl)-phenyl]-isoxazol-5-ylmethyl}-5H-imidazo[4,5-d]pyridazine] here?
A: 98.7%

Q: With `Fc1cccc(-c2nc3cnn(Cc4cc(-c5ccc(OCCN6CCCC6)cc5)no4)cc-3n2)c1F` [Compound 158, 2-(2,3-Difluoro-phenyl)-5-{3-[4-(2-pyrrolidin-1-yl-ethoxy)-phenyl]-isoxazol-5-ylmethyl}-5H-imidazo[4,5-d]pyridazine] as the compound, how does the inhibition at 10 µM read?
A: 27.9%

Q: Which inhibition at 10 µM does the source give for `Fc1ccccc1-c1nc2cnn(Cc3cc(-c4ccc(OC(F)(F)F)cc4)no3)cc-2n1` [Compound 108, 2-(2-Fluoro-phenyl)-5-[3-(4-trifluoromethoxy-phenyl)-isoxazol-5-ylmethyl]-5H-imidazo[4,5-d]pyridazine] here?
A: 100%

Q: For `COc1ccc(-c2ccc(-c3cc(Cn4cc5nc(-c6cccc(F)c6F)nc-5cn4)on3)cc2)cc1` [Compound 268, 2-(2,3-Difluoro-phenyl)-5-[3-(4′-methoxy-biphenyl-4-yl)-isoxazol-5-ylmethyl]-5H-imidazo[4,5-d]pyridazine], which inhibition at 10 µM is on record?
A: 93.7%

Q: Which inhibition at 10 µM does the source give for `O=C(O)CCCOc1ccc(-c2cc(Cn3cc4nc(-c5cccc(F)c5F)nc-4cn3)on2)cc1` [Compound 274, 4-(4-{5-[2-(2,3-Difluoro-phenyl)-imidazo[4,5-d]pyridazin-5-ylmethyl]-isoxazol-3-yl}-phenoxy)-butyric Acid] here?
A: 54.9%

Q: Which inhibition at 10 µM does the source give for `Fc1ccccc1-c1nc2cnn(Cc3cc(-c4ccc(Br)cn4)no3)cc-2n1` [Compound 289, 5-[3-(5-Bromo-pyridin-2-yl)-isoxazol-5-ylmethyl]-2-(2-fluoro-phenyl)-5H-imidazo[4,5-d]pyridazine] here?
A: 57.3%

Q: Which inhibition at 10 µM does the source give for `COc1ccc(-c2cc(Cn3cc4nc(-c5cccc(F)c5F)nc-4cn3)on2)c(C(F)(F)F)c1` [Compound 174, 2-(2,3-Difluoro-phenyl)-5-[3-(4-methoxy-2-trifluoromethyl-phenyl)-isoxazol-5-ylmethyl]-5H-imidazo[4,5-d]pyridazine] here?
A: 99.7%

Q: With `Nc1nn(Cc2cc(-c3ccc(C(F)(F)F)cc3F)no2)cc2nc(-c3cccc(F)c3F)nc1-2` [Compound 236, 2-(2,3-Difluoro-phenyl)-6-[3-(2-fluoro-4-trifluoromethyl-phenyl)-isoxazol-5-ylmethyl]-6H-imidazo[4,5-d]pyridazin-4-ylamine] as the compound, how does the inhibition at 10 µM read?
A: 76.8%

Q: Which inhibition at 10 µM does the source give for `C[Si](C)(C)C#Cc1ccc(-c2cc(Cn3cc4nc(-c5cccc(F)c5F)nc-4cn3)on2)cc1` [Compound 332, 2-(2,3-Difluoro-phenyl)-5-[3-(4-trimethylsilanylethynyl-phenyl)-isoxazol-5-ylmethyl]-5H-imidazo[4,5-d]pyridazine] here?
A: 99%

Q: With `FC(F)(F)c1ccc(-c2cc(Cn3cc4nc(NCCc5ccccc5)nc-4cn3)on2)c(C(F)(F)F)c1` [Compound 256, {5-[3-(2,4-Bis-trifluoromethyl-phenyl)-isoxazol-5-ylmethyl]-5H-imidazo[4,5-d]pyridazin-2-yl}-phenethyl-amine] as the compound, how does the inhibition at 10 µM read?
A: 9.34%

Q: With `Fc1ccccc1-c1nc2cnn(Cc3cc(-c4ccc(Br)cc4)no3)cc-2n1` [Compound 285, 5-[3-(4-Bromo-phenyl)-isoxazol-5-ylmethyl]-2-(2-fluoro-phenyl)-5H-imidazo[4,5-d]pyridazine] as the compound, how does the inhibition at 10 µM read?
A: 90.1%

Q: With `FC(F)(F)c1ccc(-c2cc(Cn3cc4nc(-c5cccc6[nH]ccc56)nc-4cn3)on2)c(C(F)(F)F)c1` [Compound 136, 5-[3-(2,4-Bis-trifluoromethyl-phenyl)-isoxazol-5-ylmethyl]-2-(1H-indol-4-yl)-5H-imidazo[4,5-d]pyridazine] as the compound, how does the inhibition at 10 µM read?
A: 5.84%

Q: For `COc1ccc(-c2nc(Cn3cc4nc(-c5ccccc5F)nc-4cn3)no2)cc1` [Compound 240, 2-(2-Fluoro-phenyl)-5-[5-(4-methoxy-phenyl)-[1,2,4]oxadiazol-3-ylmethyl]-5H-imidazo[4,5-d]pyridazine], which inhibition at 10 µM is on record?
A: 16.4%

Q: Which inhibition at 10 µM does the source give for `COc1cc(-c2cc(Cn3cc4nc(-c5cccc(F)c5F)nc-4cn3)on2)ccc1OC(F)F` [Compound 163, 5-[3-(4-Difluoromethoxy-3-methoxy-phenyl)-isoxazol-5-ylmethyl]-2-(2,3-difluoro-phenyl)-5H-imidazo[4,5-d]pyridazine] here?
A: 62%

Q: For `Cc1nc(C)c(-c2cc(Cn3cc4nc(-c5cccc(F)c5F)nc-4cn3)on2)s1` [Compound 149, 2-(2,3-Difluoro-phenyl)-5-[3-(2,4-dimethyl-thiazol-5-yl)-isoxazol-5-ylmethyl]-5H-imidazo[4,5-d]pyridazine], which inhibition at 10 µM is on record?
A: 43.7%

Q: For `COc1ccc(-c2cc(Cn3cc4nc(-c5cccc(F)c5F)nc-4cn3)on2)c(C)c1` [Compound 171, 2-(2,3-Difluoro-phenyl)-5-[3-(4-methoxy-2-methyl-phenyl)-isoxazol-5-ylmethyl]-5H-imidazo[4,5-d]pyridazine], which inhibition at 10 µM is on record?
A: 91.5%
